The record followed here is patent US9387212B2, “Methods for treating Parkinson's disease” (UCB Pharma S.A., priority 2012, dated 2016).

In test [1] the test system is hemi-parkinsonian L-Dopa-primed rats. Kind of test: Behavioural profile analysis in L-Dopa-primed, fully dyskinetic hemi-parkinsonian rats. It is filed as in vivo, rat. The following applies: Radiprodil 3 mg/kg, Tozadenant 30 mg/kg. The protocol:
The specific behavioural profile of unilateral 6-OHDA-lesioned rats was recorded via 8 cameras connected to a video acquisition system. Rats under treatment were placed freely in a small environment (rotometers, 25×22 cm) or in large open-field (50×40 cm) and the behaviour was video-recorded for 55 minutes (total of 3300 sec). The placement in the small (rotometers) or large (open-field) environment may depend on the test. The rats were filmed from below as described in the section which concerns the rotational activity.
After the in-live data recordings, the videos are subsequently analyzed by the Ethovision program from (Noldus, version 9.0). The animal and its movements and displacements were defined according to three points (nose, center and tail). The movements, position of the body and, the space occupation, were set-up according to the filter analysis defined with specific criteria and thresholds in the program. Various behavioural parameters were analyzed and only the relevant, i.e. the non-correlated ones, were kept for the final behavioural description.
The analysis of the Abnormal Involuntary movement (“AIMs”) was performed with a specific parameter defined in Ethovision 9.0. The parameter “body elongation” was used to discriminate both the intensity and the frequency of dyskinetic (i.e. dystonic) position of the rat.
The analysis of the other types of behaviours was done with specific parameters selected in the video analysis program (Ethovision 9.0) in order to describe as best as possible the behaviour observed visually and being able to quantify it. The parameters “Distance”, “Counter Clockwise rotations”, “Clockwise rotations”, “Streched” were extracted from the analysis. Additional parameter, the “gyration radius” is calculated from the raw data obtained by the system. • Distance (=“distance”): the total distance moved by the animal (cm) • Counter clockwise (=“ipsilateral turns”): count of the number of 360° turns of ipsilateral rotations in the same sense than that of the lesion. • Clockwise (=“contralateral turns”): count of the number of 360° turns of contralateral rotations in the opposite sense to that of the lesion. • Stretched: (=“adequate body position”): time spent in a position wherein the rat stands on its four paws without any bent position of the trunk. In the program this is the parameter “body elongation” that is used to discriminate the intensity and frequency of the adequate body position. The threshold is fixed at 70%. • Gyration Radius (=“adequate trajectory”): for a specific time interval, average distance between the animal position and its average position within this specific time interval. This parameter reflect the ability of the rats to use the entire space of the arena and is measured in centimeters. Statistical Analysis
Consecutively to that chronic L-Dopa/benzerazide treatment, they show a very high level of contralateral rotations and AIMs at the end of this chronic treatment when tested in the open-field. […] This absence of cross-sensitization on the level of contralateral rotations and AIMs result was entirely unexpected.

For test [2], the system named is unilateral 6-OHDA-lesioned rat model of Parkinson's disease. The test is described as follows: General activity (distance travelled, rearing counts) in actometers. It is filed as in vivo. The following applies: Radiprodil 3 mg/kg po, Tozadenant 30 mg/kg po; three-way mixed ANOVA, Tukey p<0.05. The protocol: Subjects: Males Sprague-Dawley rats (Janvier, France), weighing 250-275 g at the time of surgery and 400-450 g at the time of drug testing are used.
On the day of surgery, one week after arrival, rats received unilateral 6-OHDA injection into the right medial forebrain bundle. Each rat was administered with Imipramine HCl (Sigma) 15 minutes before surgery to protect norepinephrinergic (NE) neurons. Rats were anesthetized with Ketamine (Ceva, 75 mg/kg) and Xylazine (Bayer, 10 mg/kg) and placed in stereotaxic frame (David Kopf Instrument). […] Each rat was monitored and handled regularly for 3 weeks to ensure full recovery and acclimation to the experimenters and environment. […]
General activity was recorded within large open-field measuring horizontal and vertical movements and connected to PCs. […] Locomotion was detected and measured by 16 infrared light-beam sensors located on each side of the enclosure at heights of 3 cm. […] Activity counts were recorded by a personal computer. […]
The level of general activity (distance and rearing) measurement in actometers was assessed by three-way mixed ANOVA with the A2A antagonist (2 levels) and the NR2B antagonist (2 levels) as between-group factors and the time as within-subjects factor (6 or 24 levels). […]

On to `O=C(Nc1ccc2[nH]c(=O)oc2c1)C(=O)N1CCC(Cc2ccc(F)cc2)CC1` [Radiprodil], for which, in test [1] (arrow gives direction vs LD/BZ), the “Adequate body position, in comparison to the same rats under L-Dopa/benserazide” value amounted to 5236% ↑; the “Adequate trajectory, in comparison to the same rats under L-Dopa/benserazide” value was determined as 140% ↑; the “Contra turns, in comparison to the same rats under L-Dopa/benserazide” value worked out at 16% ↓; the “No AIMs, in comparison to the same rats under L-Dopa/benserazide” value is 1035% ↑. In addition, the “Severe AIMs, in comparison to the same rats under L-Dopa/benserazide” value in test [1] (arrow gives direction vs LD/BZ) worked out at 7% ↓. The “Distance, in comparison to the same rats under L-Dopa/benserazide” value in test [1] (arrow in cell: increase, decrease or no change vs LD/BZ) is 69% ↓. Further, in test [2], the “distance (FIG. 1, right graph)” value is reported as “Significant effect”.
